Test results: patent US20190030053A1, “COMPOSITION FOR INCREASING EXPRESSION OF PGC-1alpha” (BENEBIOSIS CO., LTD., priority 2016, published 2019)

Columns and labels:
[1] = tested on: 6-OHDA induced SD rat Parkinson's disease models; test: Behavioral ability tests (corner turn and descent, vertical grating device) in Parkinson's disease models; type: in vivo; details: 6-OHDA SD rats, oral 0.1 mg/kg/day
From the text: In order to investigate the changes in gene expression and behavior improvement by the treatment with SL (3′-SL & 6′-SL) compositions in Parkinson's brain disease models, 13-week-old normal SD rats and Parkinson's brain disease models were purchased from Central Lab Animal (Korea). Water was freely accessible, and a commercially available pellet feed (Dooyeul Biotech, Korea) was given for one week. At 14 weeks of age, the SD rats were divided into four groups (composed of 8 animals per group): Eight 14-week-old male SD rats (normal rats; initial body weight, average 355.6±32.3 g) treated with a normal diet were used for a control group. The 6-OHDA induced SD rat Parkinson's disease models, which were administered with 6-hydroxydopamine (6-OHDA) at 8 weeks of age and supplied at 13 weeks of age, were randomly divided into three different dietary treatment groups below (8 animals per group), and these diets were maintained from 14 weeks of age for 10 weeks (total 32 animals): • Control group: Normal rats fed with a normal diet without SL administration (8 animals) • (Parkinson's disease model) group: Parkinson's disease models fed with a normal diet without SL administration (8 animals) • (Parkinson's disease model+3′-SL) group: Parkinson's disease models treated with 3′-sialyllactose (3′-SL, Sigma) (oral administration of 0.1 mg per kg of rat weight per day) in addition to the normal diet group (8 animals) • (Parkinson's disease model+6′-SL) group: Parkinson's disease models treated with 6′-sialyllactose (6′-SL, Sigma) (oral administration of 0.1 mg per kg of rat weight per day) in addition to the normal diet group (8 animals)
In FIG. 8, the vertical axis represents the corner turn time and the descent time as a result of carrying out behavioral ability tests (corner turn and descent) using a vertical grating device on a control group, (Parkinson's disease model) group, (Parkinson's disease model+3′-SL) group, and (Parkinson's disease model+6′-SL) group. The vertical grating device was in the form of an opened box of 5 cm×55 cm×8 cm, and the frant face was formed of a wiring of 0.8 cm×0.8 cm and the other surfaces were formed of black plexiglass. The bottom was made 5 cm longer for safety. In the test, the […] were placed in an upward direction at a distance of 3 cm from the top of the device, and were allowed to acclimate to the device three times for two days before testing. The above procedure was repeated if the rat could not come down within 60 seconds. The corner turn time is the time it takes for a rat facing upwards to turn downwards, and the descent time is the time obtained by subtracting the corner turn time from the overall test time for which the rat turns at the corner and descends to the bottom.

PGC-1α and related genes = test: Gene expression in brain and hippocampus of Huntington's disease models; type: in vivo, mouse; details: R6/2 mice, oral 0.1 mg/kg/day, 10 weeks
From the text: In order to investigate the changes in gene expression and cognitive ability by the treatment with SL (3′-SL & 6′-SL) compositions in Huntington's brain disease model, 4-week-old mice were purchased from Central Lab Animal (Korea). Water was freely accessible, and a commercially available pellet feed (Dooyeul Biotech, Korea) was given for one week. At 5 weeks of age, the mice were divided into three groups (composed of eight mice for each group): Eight 5-week-old male c57/BL6 mice (normal mice; initial body weight, average 25.3±4.3 g) treated with a normal diet were used for a control group. […]
Sialyllactose or DW was orally administered daily. […] The dietary intake and body weight change were measured every 5 days. […]
The gene expression changes by the treatment with SL (3′-SL & 6′-SL) compositions were quantitatively compared in two main organs (brain and hippocampus) associated with bran diseases. RNA was extracted by TRIzol agent (Invitrogen). cDNA was synthesized by using RNA, which has been extracted as above and quantified, and a reverse transcription system (Promega, USA). The expression patterns of PGC-1α and related genes were measured by using pre-designed primers and probes (Applied Biosystems; PGC-1α, Mm00447181_m1, GAPDH, and Mm99999915_q1) for the synthesized cDNA and analysis targets (Fndc5, PGC-1α, Erra, UCP1, BDNF, SOD2, and GPX1). […]

SMILES | corner turn time [1] | descent time [1] | expression levels of PGC-1α and related genes vs SL non-administration (Huntington's disease model) group (PGC-1α and related genes) | expression levels of PGC-1α and related genes vs normal control group (PGC-1α and related genes)
CC(=O)N[C@H]1[C@H]([C@H](O)[C@H](O)CO)O[C@@](OC[C@H]2O[C@@H](O[C@H]3[C@H](O)[C@@H](O)[C@H](O)O[C@@H]3CO)[C@H](O)[C@@H](O)[C@H]2O)(C(=O)O)C[C@@H]1O [6′-SL, α-NeuNAc-(2→6)-β-D-Gal-(1→4)-D-Glc] | almost similar to those in the control group | almost similar to those in the control group | very excellent | somewhat lower
CC(=O)N[C@H]1[C@H]([C@H](O)[C@H](O)CO)O[C@@](O[C@H]2[C@@H](O)[C@@H](CO)O[C@@H](O[C@H]3[C@H](O)[C@@H](O)C(O)O[C@@H]3CO)[C@@H]2O)(C(=O)O)C[C@@H]1O (stereo partly drawn) [3′-SL, α-NeuNAc-(2→3)-β-D-Gal-(1→4)-D-Glc] | relatively low compared with 6′-SL | relatively low compared with 6′-SL | relatively low compared with 6′-SL | –
